In ChEMBL document CHEMBL5356935, “Discovery of rigid biphenyl Plasmodium falciparum DHFR inhibitors using a fragment linking strategy” (RSC Med Chem, 2023):
Activity calls are given as the source filed them. The rule behind the calls is not given here.

Tests used:
Plasmodium falciparum [1] = assay: Inhibition of Plasmodium falciparum DHFR N51I/C59R/S108N/I164L quadruple mutant using DHF as substrate at 500 uM in presence of NADPH by UV-Vis spectrometry analysis
[2] = target: Bifunctional dihydrofolate reductase-thymidylate synthase (Plasmodium falciparum K1) (UniProt P13922); assay: Inhibition of wild type Plasmodium falciparum DHFR using DHF as substrate at 500 uM in presence of NADPH by UV-Vis spectrometry analysis relative to control
Bifunctional dihydrofolate reductase-thymidylate synthase (Plasmodium falciparum K1), sequence (P13922 whole entry, looked up): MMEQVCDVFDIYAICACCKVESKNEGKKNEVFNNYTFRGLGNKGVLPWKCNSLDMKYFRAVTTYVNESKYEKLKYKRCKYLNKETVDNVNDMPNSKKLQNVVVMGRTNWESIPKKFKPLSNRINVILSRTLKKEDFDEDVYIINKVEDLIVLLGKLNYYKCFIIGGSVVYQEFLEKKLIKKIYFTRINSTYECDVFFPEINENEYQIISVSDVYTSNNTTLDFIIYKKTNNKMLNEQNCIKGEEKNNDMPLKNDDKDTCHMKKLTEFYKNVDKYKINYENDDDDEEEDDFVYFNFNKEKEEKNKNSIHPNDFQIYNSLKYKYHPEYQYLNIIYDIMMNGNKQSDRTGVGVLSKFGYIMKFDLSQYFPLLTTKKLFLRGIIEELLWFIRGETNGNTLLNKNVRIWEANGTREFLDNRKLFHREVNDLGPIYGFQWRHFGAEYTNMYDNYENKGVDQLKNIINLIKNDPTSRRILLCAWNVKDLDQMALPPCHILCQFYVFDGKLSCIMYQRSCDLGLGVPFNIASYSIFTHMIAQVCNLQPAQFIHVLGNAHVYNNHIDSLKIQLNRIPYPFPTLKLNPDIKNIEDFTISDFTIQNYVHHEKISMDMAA

[3] = target: T1, Dihydrofolate reductase (Homo sapiens) (UniProt P00374); assay: Inhibition of human DHFR at 500 uM by UV-Vis spectrometry analysis
T1 sequence (whole entry): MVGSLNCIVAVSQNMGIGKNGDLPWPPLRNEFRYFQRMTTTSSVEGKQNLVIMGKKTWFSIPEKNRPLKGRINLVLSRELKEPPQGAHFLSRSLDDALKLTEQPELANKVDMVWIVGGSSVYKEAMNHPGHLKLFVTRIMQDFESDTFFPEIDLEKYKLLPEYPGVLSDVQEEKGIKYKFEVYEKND

[4] = target: Bifunctional dihydrofolate reductase-thymidylate synthase (Plasmodium falciparum K1) (UniProt P13922); assay: Binding affinity to Plasmodium falciparum DHFR assessed as binding constant (koff) by surface plasmon resonance analysis
[5] = target: Bifunctional dihydrofolate reductase-thymidylate synthase (Plasmodium falciparum K1) (UniProt P13922); assay: Binding affinity to Plasmodium falciparum DHFR assessed as binding constant (kon) by surface plasmon resonance analysis
[6] = target: Bifunctional dihydrofolate reductase-thymidylate synthase (Plasmodium falciparum K1) (UniProt P13922); assay: Inhibition of wild type Plasmodium falciparum DHFR using DHF as substrate at 500 uM in presence of NADPH by UV-Vis spectrometry analysis
[7] = target: Bifunctional dihydrofolate reductase-thymidylate synthase (Plasmodium falciparum K1) (UniProt P13922); assay: Binding affinity to Plasmodium falciparum DHFR assessed as faster binding and release kinetics by surface plasmon resonance analysis
Plasmodium falciparum [8] = assay: Inhibition of Plasmodium falciparum DHFR N51I/C59R/S108N/I164L quadruple mutant assessed as fold change in inhibition in presence of 2,4-diamino-6-ethylpyrimidin-5-ol
Plasmodium falciparum [9] = assay: Inhibition of Plasmodium falciparum DHFR N51I/C59R/S108N/I164L quadruple mutant using DHF as substrate at 500 uM in presence of NADPH by UV-Vis spectrometry analysis relative to control
[10] = Inhibition of Plasmodium falciparum DHFR N51I/C59R/S108N/I164L quadruple mutant using DHF as substrate assessed as inhibition constant in presence of NADPH by UV-Vis spectrometry analysis
[11] = Kinetic solubility of the compound at pH 4.5 at 200 uM incubated for 2 hrs under shaking condition by HPLC analysis; format: physicochemical; conditions: buffer, read-out: Kinetic_solubility
[12] = Kinetic solubility of the compound at pH 7.4 at 200 uM incubated for 2 hrs under shaking condition by HPLC analysis; format: physicochemical; conditions: buffer, read-out: Kinetic_solubility
Plasmodium falciparum [13] = assay: Antiplasmodial activity against PYR-sensitive Plasmodium falciparum TM4/8.2 encoding WT DHFR infected in human erythrocytes assessed as inhibition of parasite growth by [3H]-hypoxanthine incorporation assay; format: functional, organism-based; conditions: TM4/8.2, Erythrocyte
[14] = Distribution coefficient, log D of compound in n-octanol and saturated PBS at pH 7.4 at 100 uM incubated for 2 hrs under shaking condition by HPLC analysis; format: physicochemical
Dihydrofolate reductase = target: T2, Dihydrofolate reductase (Homo sapiens, UniProt P00374); assay: Inhibition of human DHFR using DHF as substrate assessed as inhibition constant in presence of NADPH by UV-Vis spectrometry analysis
T2 sequence (P00374 whole entry): T1 sequence (whole entry)

[15] = Kinetic solubility of the compound at pH 2.0 at 200 uM incubated for 2 hrs under shaking condition by HPLC analysis; format: physicochemical; conditions: buffer, read-out: Kinetic_solubility
[16] = Kinetic solubility of the compound at pH 6.5 at 200 uM incubated for 2 hrs under shaking condition by HPLC analysis; format: physicochemical; conditions: buffer, read-out: Kinetic_solubility
Plasmodium falciparum [17] = assay: Antiplasmodial activity against PYR-resistant Plasmodium falciparum V1/S encoding QM DHFR infected in human erythrocytes assessed as inhibition of parasite growth by [3H]-hypoxanthine incorporation assay; format: functional, organism-based; conditions: Erythrocyte
[18] = Cytotoxicity against African green monkey Vero cells assessed as cell growth inhibition incubated for 72 hrs by sulforhodamine B assay; format: toxicity, cell-based, Chlorocebus sabaeus
[19] = target: Bifunctional dihydrofolate reductase-thymidylate synthase (Plasmodium falciparum K1, UniProt P13922); assay: Inhibition of wild type Plasmodium falciparum DHFR using DHF as substrate assessed as inhibition constant in presence of NADPH by UV-Vis spectrometry analysis
Bifunctional dihydrofolate reductase-thymidylate synthase, sequence (P13922 whole entry): as the sequence (P13922 whole entry, looked up) above

[20] = Metabolic stability in human liver microsomes assessed as intrinsic clearance measured upto 60 mins in presence of NADPH by LC-MS/MS analysis; format: ADME, Microsome; conditions: read-out: CLH
[21] = Metabolic stability in rat liver microsomes assessed as intrinsic clearance measured upto 60 mins in presence of NADPH by LC-MS/MS analysis; format: ADME, Microsome; conditions: read-out: CLH

Row | Compound | inhibition [2] [%] | inhibition [3] | K [4] [s⁻¹] | K [5] [M⁻¹ s⁻¹] | inhibition [6] | inhibition (Plasmodium falciparum [9]) [%] | Ki [10] [nM] | IC50 (Plasmodium falciparum [13]) [nM] | Ki (Dihydrofolate reductase) [nM] | IC50 (Plasmodium falciparum [17]) [nM] | IC50 at 72 h [18] [nM] | Ki [19] [nM] | other results
1 | COc1cccc(-c2ccc(C(=O)O)o2)c1 | 12.7 | inactive | 0.014 | 9.51 | – | – | – | – | – | – | – | – | inhibition (Plasmodium falciparum [1]): inactive
2 | O=C(O)c1ccnc(-c2ccccc2)c1 | – | inactive | 0.01 | 3.55 | inactive | – | – | – | – | – | – | – | inhibition (Plasmodium falciparum [1]): inactive
3 | COc1ccccc1-c1ccc(C(=O)O)cc1 | 14.6 | inactive | – | – | – | 24 | – | – | – | – | – | – | Activity [7]: Active; fold change (FC) (Plasmodium falciparum [8]): 2.7
4 | Cc1oc(-c2ccccc2)cc1C(=O)O | – | inactive | 0.014 | 6.06 | inactive | – | – | – | – | – | – | – | inhibition (Plasmodium falciparum [1]): inactive
5 | COc1cc(Cc2cnc(N)nc2N)cc(OC)c1OC [TRIMETHOPRIM] | – | – | – | – | – | – | 49.1 | – | – | – | – | – | –
6 | O=C(O)c1cccc(-c2cccnc2)c1 | – | inactive | 0.002 | 16.3 | inactive | 3.89 | – | – | – | – | – | – | –
7 | CCc1nc(N)nc(N)c1Cc1ccc(-c2cccc(C(=O)OC)c2)cc1.Cl | – | – | – | – | – | – | 2.11 | 720 | 140 | 34500 | 19300 | 0.29 | solubility kinetic at 2 h, 200 µM [11]: 183 µM; solubility kinetic at 2 h, 200 µM [12]: 8.1 µM; logD at 2 h, 100 µM [14]: 3.37; solubility kinetic at 2 h, 200 µM [15]: 186 µM; solubility kinetic at 2 h, 200 µM [16]: 8.8 µM; microsomal CLint [20]: 625 µL/min/mg; microsomal CLint [21]: 100 µL/min/mg
8 | O=C(O)c1ccc(-n2cccc2)cc1 | 8 | inactive | 0.008 | 14.6 | – | 19.4 | – | – | – | – | – | – | –
9 | CCc1nc(N)nc(N)c1Cc1cccc(-c2ccc(C(=O)O)cc2)c1.Cl.Cl | – | – | – | – | – | – | 3.3 | 8550 | 22 | > 50000 | > 50000 | 0.48 | solubility kinetic at 2 h, 200 µM [11]: 19.2 µM; solubility kinetic at 2 h, 200 µM [12]: 30.8 µM; solubility kinetic at 2 h, 200 µM [15]: 188 µM; solubility kinetic at 2 h, 200 µM [16]: 19.2 µM
10 | O=C(O)c1cccc(-c2ccccc2)n1 | – | inactive | 0.013 | 9.99 | inactive | – | – | – | – | – | – | – | inhibition (Plasmodium falciparum [1]): inactive
11 | O=C(O)c1ccccc1-c1ccncc1 | – | inactive | – | – | inactive | – | – | – | – | – | – | – | Activity [7]: Active; inhibition (Plasmodium falciparum [1]): inactive
12 | O=C(O)c1cccnc1-c1ccccc1 | – | inactive | – | – | inactive | – | – | – | – | – | – | – | Activity [7]: Active; inhibition (Plasmodium falciparum [1]): inactive
13 | O=C(O)c1ccc(-c2ccc(O)cc2)cc1 | 21.1 | inactive | 0.011 | 14.8 | – | 24.9 | – | – | – | – | – | – | –
14 | O=C(O)c1ccc(-c2ccncc2)cc1 | 2.93 | inactive | 0.001 | 16.4 | – | 10.1 | – | – | – | – | – | – | –
15 | O=C(O)c1ccccc1-c1ccco1 | 6.5 | inactive | 0.012 | 40 | – | 7.7 | – | – | – | – | – | – | –
16 | CCc1nc(N)nc(N)c1Cc1cccc(-c2cccc(C(=O)O)c2)c1 | – | – | – | – | – | – | 0.81 | 4140 | 108 | 35000 | > 50000 | 0.23 | –
17 | CCc1nc(N)nc(N)c1Cc1cccc(-c2ccc(C(=O)OC)cc2)c1 | – | – | – | – | – | – | 1.04 | 34100 | 16.6 | > 50000 | > 50000 | 0.25 | logD at 2 h, 100 µM [14]: 3.24
18 | CCc1nc(N)nc(N)c1Cc1ccc(-c2cccc(C(=O)O)c2)cc1.Cl | – | – | – | – | – | – | 1.96 | 770 | 147 | 29700 | > 50000 | 0.29 | solubility kinetic at 2 h, 200 µM [11]: 11.4 µM; solubility kinetic at 2 h, 200 µM [12]: 29.9 µM; solubility kinetic at 2 h, 200 µM [15]: 192 µM; solubility kinetic at 2 h, 200 µM [16]: 15.7 µM; microsomal CLint [20]: 4.92 µL/min/mg; microsomal CLint [21]: < 3 µL/min/mg
19 | CCc1nc(N)nc(N)c1Cc1ccc(-c2ccc(C(=O)O)cc2)cc1.Cl | – | – | – | – | – | – | 61.1 | 11200 | 214 | > 50000 | > 50000 | 1.59 | solubility kinetic at 2 h, 200 µM [11]: 8.8 µM; solubility kinetic at 2 h, 200 µM [12]: 11.7 µM; logD at 2 h, 100 µM [14]: 0.332; solubility kinetic at 2 h, 200 µM [15]: 176 µM; solubility kinetic at 2 h, 200 µM [16]: 11.4 µM; microsomal CLint [20]: < 3 µL/min/mg; microsomal CLint [21]: < 3 µL/min/mg
20 | O=C(O)c1ccc(-c2cnco2)cc1 | – | inactive | 0.013 | 5.26 | inactive | 11.3 | – | – | – | – | – | – | fold change (FC) (Plasmodium falciparum [8]): 2.6
21 | CCc1nc(N)nc(N)c1Cc1ccc(-c2ccc(C(=O)OC)cc2)cc1.Cl | – | – | – | – | – | – | 41.7 | 8150 | 423 | > 25000 | > 25000 | 1.06 | solubility kinetic at 2 h, 200 µM [11]: 132 µM; solubility kinetic at 2 h, 200 µM [12]: < 4 µM; logD at 2 h, 100 µM [14]: 3.49; solubility kinetic at 2 h, 200 µM [15]: 154 µM; solubility kinetic at 2 h, 200 µM [16]: < 4 µM; microsomal CLint [20]: 459 µL/min/mg; microsomal CLint [21]: 764 µL/min/mg
22 | CCc1nc(N)nc(N)c1Cc1cccc(-c2cccc(C(=O)OC)c2)c1 | – | – | – | – | – | – | 0.58 | 4950 | 19.4 | 40000 | 21700 | 0.21 | logD at 2 h, 100 µM [14]: 3.2
23 | O=C(O)c1ccc(-c2cccnc2)cc1 | 8.5 | inactive | 0.001 | 4.18 | – | 2.4 | – | – | – | – | – | – | –
